From patent US9616065B2, “Compositions useful in treating brain-related diseases or disorders and methods using same” (priority 2013, dated 2017)
“Also recorded” adds a separate entry of the source. Like-named read-outs stand apart in the source and are kept apart here.

Experiments:
[1] = target: T1, SERT (Homo sapiens, UniProt P31645); assay: [3H]-serotonin uptake after preincubation with modulator; format: cell-based
T1 construct: The templates were full-length and nontagged human SERT in pcdna3.1; expressed in transfected cells; host or cells: COS-7, HEK293 or MDCK (uptake); COS-7 (efflux)
Experimental: (§1) COS-7, HEK293, and MDCK cells were maintained in Dulbecco modified Eagle medium (3.5 g/l glucose) supplemented with FBS (10% each) at 37° C. with 5% CO2. Uptake experiments were performed 2 days after transfecting DNAs (hSERT, human dopamine transporter [hDAT], chimeras or mutants, or empty vector for background) with TransIT-LT1 (Minis Bio LLC, Madison, Wis., USA) transfection reagent and plating the cells in 24- or 96-well plates.
(§2) The uptake was allowed to continue for 10 min at room temperature and was terminated by washing with PBS-CM. […] Vmax and KM are given as mean±S.D. of three independent experiments. […] EC50 values are given as mean±S.E.M. of at least five independent experiments. Statistical significance between vehicle and drug treatments was assessed using Student t-test or one-way analysis of variance (ANOVA) Dunnett's multiple-comparison test (p<0.05).

[2] = target: T2, NET (Homo sapiens, UniProt P23975); assay: NET interaction with amphetamine in presence of modulator; format: cell-based
T2 construct: expressed in transfected cells
Experimental: (§3) Mutants are functionally tested in transfected COS-7 cells. Based on the success of the approach that identified the A1 site, the critical residues identified elsewhere herein are tested for changes in uptake kinetics and amphetamine-mediated efflux. Following this initial screen, residues displaying altered activity are tested further in uptake inhibition and ligand displacement assays. For uptake, cells are washed with PBSCM (phosphate-buffered saline with 1 mM MgCl, 0.1 mM CaCl2, 100 μM ascorbic acid, 10 μM clorgyline, 100 μM pargyline, and 10 μM RO 41-0960). To initiate uptake, cells are incubated for 10 min at 25° C. with various concentrations of radiolabeled monoamine. Following uptake, cells are washed and radioactivity is counted using liquid scintillation counting. […] Apparent Km and Vmax are determined using nonlinear regression analysis. The interaction of WT and mutant MAT with psychostimulants and transporter inhibitors is assessed using uptake inhibition assays. Cells are transfected as described elsewhere herein, but before uptake is initiated the cells are preincubated with various concentrations of ligand for 10 min. Uptake is initiated and performed as described elsewhere herein.

[3] = tested on: hDAT L89C mutant (L89A); assay: Dopamine uptake inhibition assay, hDAT L89 mutant; format: cell-based, human
Experimental: as §3

[4] = target: T3, hDAT (Homo sapiens, UniProt Q01959); assay: [3H]-dopamine uptake after preincubation with modulator; format: cell-based
T3 construct: expressed in transfected cells; host or cells: COS-7, HEK293 or MDCK
Experimental: as §1, §2

[5] = target: T4, WT hDAT (Homo sapiens, UniProt Q01959); assay: Amphetamine-induced efflux with modulator, hDAT WT; format: cell-based; conditions: 5 nM amphetamine
T4 construct: expressed in transfected cells; host or cells: COS-7, HEK293 or MDCK
Experimental: (§4) Efflux is terminated by collecting the supernatant. Both cells and supernatant are counted by liquid scintillation counting. Efflux is calculated as ratio of supernatant over supernatant and cells.

[6] = target: T5, hDAT N93A mutant (Homo sapiens, UniProt Q01959, N93A); assay: Amphetamine-induced efflux with modulator, hDAT N93A mutant; format: cell-based; conditions: low concentrations of amphetamine
T5 construct: expressed in transfected cells; host or cells: COS-7
T5 sequence (Q01959 1-620 N93A): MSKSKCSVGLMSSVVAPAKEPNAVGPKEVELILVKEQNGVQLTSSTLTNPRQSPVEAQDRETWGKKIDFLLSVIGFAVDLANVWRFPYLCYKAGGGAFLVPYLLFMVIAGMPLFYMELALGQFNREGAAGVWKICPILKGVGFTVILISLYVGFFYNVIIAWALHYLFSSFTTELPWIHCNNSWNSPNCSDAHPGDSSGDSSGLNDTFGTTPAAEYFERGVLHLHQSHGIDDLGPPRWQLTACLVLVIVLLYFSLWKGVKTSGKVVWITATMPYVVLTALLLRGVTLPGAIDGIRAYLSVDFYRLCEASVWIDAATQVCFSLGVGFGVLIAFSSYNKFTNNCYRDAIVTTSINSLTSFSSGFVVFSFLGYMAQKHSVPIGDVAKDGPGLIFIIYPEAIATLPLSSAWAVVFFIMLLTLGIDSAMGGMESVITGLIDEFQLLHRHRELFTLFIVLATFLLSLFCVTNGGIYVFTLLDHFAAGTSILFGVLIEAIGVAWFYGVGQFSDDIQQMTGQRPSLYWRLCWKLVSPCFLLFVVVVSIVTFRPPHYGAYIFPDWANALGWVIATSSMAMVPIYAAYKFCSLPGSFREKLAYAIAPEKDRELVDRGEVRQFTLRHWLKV
Experimental: as §4

[7] = target: T6, human SERT amino acid 328 mutant (D328C) (Homo sapiens, UniProt P31645, D328C); assay: Amphetamine-elicited efflux, human SERT amino acid 328 mutant; format: cell-based; conditions: 1 μM amphetamine
T6 construct: The templates were full-length and nontagged human SERT in pcdna3.1; expressed in transfected cells; host or cells: COS-7
Experimental: (§5) COS-7 cells were maintained under the same conditions as above. Efflux experiments were performed 2 days after cell transfection with hSERT or empty vector and plating of the cells in 24-well plates. Cells were washed with room temperature PBS-CM and then loaded with 50 nM [^3H]-serotonin for 1 h. After preloading, cells were washed twice with buffer and then incubated for 10 min with or without substrates at room temperature. After incubation, the supernatant was collected, liquid scintillation fluid added, and the samples counted (Beckman LS-6500 Multi-purpose Scintillation Counter; Beckman Coulter, Brea, Calif.). The cells were solubilized in a solution of 0.1% sodium dodecyl sulfate and 0.1 M NaOH; liquid scintillation fluid was added and tubes were counted as above. All assays were done in quadruplicate.
(§6) The percentage of [^3H]-serotonin efflux among different treatments was calculated by adding counts of supernatant plus cell lysis, with the supernatant counts then divided by the total and multiplied by 100 to yield the percentage of efflux.
(§7) To investigate the role of central domains formed by TMD1 and 6 within SERT, chimeras were produced between the human and parasite SERT and TMD1 and 2 or 6 and 7, respectively, were replaced in the human SERT with their parasite counterparts. […]

[8] = target: SmDAT (Schistosoma mansoni, UniProt E9LD23); assay: Transport inhibition constants, SmDAT; format: cell-based
[9] = target: T7, human SERT amino acid 112 mutant (N112C) (Homo sapiens, UniProt P31645, N112C); assay: Amphetamine-elicited efflux, human SERT amino acid 112 mutant; format: cell-based; conditions: 1 μM amphetamine
T7 construct: The templates were full-length and nontagged human SERT in pcdna3.1; expressed in transfected cells; host or cells: COS-7
Experimental: as §5, §6, §7

[10] = target: wild-type human SERT (Homo sapiens, UniProt P31645); assay: Amphetamine-elicited efflux, wild-type human SERT; format: cell-based; design: The templates were full-length and nontagged human SERT in pcdna3.1; expressed in transfected cells; host or cells: COS-7, HEK293 or MDCK (uptake); COS-7 (efflux); conditions: 1 μM amphetamine
Experimental: as §5, §6, §7

[11] = target: SmSERT (Schistosoma mansoni, UniProt Q3I1M7); assay: Transport inhibition constants, SmSERT; format: cell-based
[12] = tested on: mSERT mutant YETQ-L563V; assay: Substrate-elicited efflux, mSERT mutant YETQ-L563V; format: cell-based, mouse; conditions: up to highest testable concentration
Experimental: as §4

[13] = target: T2, NET; assay: hNET uptake assay with transporter modulators; format: cell-based
[14] = tested on: mSERT mutant YETQ-L563V; assay: Serotonin uptake kinetics, mSERT mutant YETQ-L563V; format: cell-based, mouse; conditions: read-out: apparent affinity (Km)
[15] = substrate: NCCc1c[nH]c2ccc(O)cc12; assay: cells, lysate or membranes; conditions: other: WT mSERT
[16] = read-out: Ki transport inhibition SmDAT

SmSERT, sequence (Q3I1M7 entry or part of it): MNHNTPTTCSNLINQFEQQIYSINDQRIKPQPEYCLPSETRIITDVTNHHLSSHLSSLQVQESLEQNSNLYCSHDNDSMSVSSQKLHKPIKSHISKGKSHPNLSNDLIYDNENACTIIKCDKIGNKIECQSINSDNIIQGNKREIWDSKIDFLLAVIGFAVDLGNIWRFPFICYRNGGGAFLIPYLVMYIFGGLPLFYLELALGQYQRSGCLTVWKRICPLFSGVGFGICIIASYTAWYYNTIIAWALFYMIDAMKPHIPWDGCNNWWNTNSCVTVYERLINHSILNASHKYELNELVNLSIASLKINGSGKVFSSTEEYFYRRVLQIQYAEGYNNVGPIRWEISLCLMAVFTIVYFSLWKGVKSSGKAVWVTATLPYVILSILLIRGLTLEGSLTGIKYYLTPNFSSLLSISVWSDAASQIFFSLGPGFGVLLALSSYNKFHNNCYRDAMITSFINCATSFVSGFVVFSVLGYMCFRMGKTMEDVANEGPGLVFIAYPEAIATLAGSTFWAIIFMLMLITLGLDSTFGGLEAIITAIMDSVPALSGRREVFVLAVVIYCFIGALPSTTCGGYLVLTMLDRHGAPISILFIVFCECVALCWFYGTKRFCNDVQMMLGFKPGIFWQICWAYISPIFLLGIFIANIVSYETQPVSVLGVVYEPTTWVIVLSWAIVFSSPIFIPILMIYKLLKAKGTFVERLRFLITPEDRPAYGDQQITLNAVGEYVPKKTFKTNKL
SmDAT, sequence (E9LD23 1-727): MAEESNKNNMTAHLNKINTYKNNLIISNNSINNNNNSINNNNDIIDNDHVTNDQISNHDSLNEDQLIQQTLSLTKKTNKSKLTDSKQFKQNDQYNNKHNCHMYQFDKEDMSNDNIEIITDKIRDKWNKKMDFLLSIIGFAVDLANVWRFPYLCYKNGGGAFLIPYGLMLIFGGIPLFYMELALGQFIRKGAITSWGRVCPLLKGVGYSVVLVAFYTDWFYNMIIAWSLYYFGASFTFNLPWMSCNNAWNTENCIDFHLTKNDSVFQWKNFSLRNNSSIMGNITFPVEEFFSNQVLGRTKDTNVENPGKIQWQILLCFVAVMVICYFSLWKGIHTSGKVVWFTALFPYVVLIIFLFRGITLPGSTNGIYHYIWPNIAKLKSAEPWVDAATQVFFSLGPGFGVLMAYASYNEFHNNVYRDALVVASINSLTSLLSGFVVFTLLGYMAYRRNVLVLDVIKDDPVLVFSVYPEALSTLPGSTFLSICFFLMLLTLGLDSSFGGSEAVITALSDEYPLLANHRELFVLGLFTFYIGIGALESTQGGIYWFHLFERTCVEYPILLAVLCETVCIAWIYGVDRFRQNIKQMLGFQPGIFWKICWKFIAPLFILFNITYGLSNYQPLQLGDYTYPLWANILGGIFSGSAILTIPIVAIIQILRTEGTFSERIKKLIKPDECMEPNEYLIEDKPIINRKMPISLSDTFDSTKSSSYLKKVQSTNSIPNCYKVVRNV
T3 sequence (Q01959 whole entry): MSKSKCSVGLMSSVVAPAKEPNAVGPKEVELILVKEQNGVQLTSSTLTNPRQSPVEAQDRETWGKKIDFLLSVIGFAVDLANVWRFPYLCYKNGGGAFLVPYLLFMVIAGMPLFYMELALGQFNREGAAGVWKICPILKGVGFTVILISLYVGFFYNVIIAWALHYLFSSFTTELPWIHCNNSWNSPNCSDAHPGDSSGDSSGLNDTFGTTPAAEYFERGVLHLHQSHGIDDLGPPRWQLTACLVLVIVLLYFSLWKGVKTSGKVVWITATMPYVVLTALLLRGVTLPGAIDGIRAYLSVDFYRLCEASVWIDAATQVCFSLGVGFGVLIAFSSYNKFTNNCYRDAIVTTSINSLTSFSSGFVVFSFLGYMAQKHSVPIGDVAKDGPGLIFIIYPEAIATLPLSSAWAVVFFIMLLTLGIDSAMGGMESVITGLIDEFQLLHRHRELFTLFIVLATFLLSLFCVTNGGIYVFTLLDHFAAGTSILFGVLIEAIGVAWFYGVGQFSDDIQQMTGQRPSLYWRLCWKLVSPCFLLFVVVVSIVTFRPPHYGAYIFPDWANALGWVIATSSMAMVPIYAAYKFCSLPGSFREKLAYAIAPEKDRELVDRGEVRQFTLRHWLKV
T2 sequence (P23975 whole entry): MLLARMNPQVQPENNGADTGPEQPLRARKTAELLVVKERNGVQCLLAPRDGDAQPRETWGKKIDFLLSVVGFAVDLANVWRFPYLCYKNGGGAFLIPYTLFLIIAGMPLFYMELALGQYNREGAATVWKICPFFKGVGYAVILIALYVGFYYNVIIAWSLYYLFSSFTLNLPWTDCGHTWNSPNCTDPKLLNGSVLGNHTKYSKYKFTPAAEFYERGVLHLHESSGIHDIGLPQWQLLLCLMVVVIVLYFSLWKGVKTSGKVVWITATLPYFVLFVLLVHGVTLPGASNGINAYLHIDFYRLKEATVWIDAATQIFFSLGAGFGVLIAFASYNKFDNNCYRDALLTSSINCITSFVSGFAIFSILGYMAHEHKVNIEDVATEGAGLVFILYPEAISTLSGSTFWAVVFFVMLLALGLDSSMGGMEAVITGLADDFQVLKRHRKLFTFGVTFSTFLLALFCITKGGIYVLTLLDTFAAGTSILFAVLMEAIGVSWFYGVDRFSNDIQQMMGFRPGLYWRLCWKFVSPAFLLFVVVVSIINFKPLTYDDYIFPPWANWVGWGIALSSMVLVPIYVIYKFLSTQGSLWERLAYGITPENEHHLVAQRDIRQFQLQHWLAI
T4 sequence (Q01959 whole entry): as the sequence (Q01959 whole entry) above

Molecule: COc1cc(C(C(=O)NCCC(C)C)N(CCCO)C(=O)c2snc(C(N)=O)c2N)ccc1O (centres unmarked) [ATM2, 4-amino-N^5-{1-(4-hydroxy-3-methoxyphenyl)-2-[(3-methylbutyl)amino]-2-oxoethyl}-N^5-(3-hydroxypropyl)-1,2-thiazole-3,5-dicarboxamide]
- effect on SERT uptake activity / specificity [1]: higher activity towards SERT
- shape of concentration response on transporter uptake [1]: biphasic mode of action, enhancing transporter activity at low concentrations and inhibiting transporter function at higher concentrations
- effect on affinity of amphetamine for NET [2]: affinity for amphetamine was enhanced

Molecule: CCc1ccc2[nH]c3nc(SCCNS(=O)(=O)c4ccc(NC(C)=O)cc4)nnc3c2c1 [ATM5]
- affinity of mutant for ATM5 versus WT [3]: increased affinity for ATM5
- effect on DAT uptake activity / specificity [4]: higher activity towards hDAT than hSERT
- shape of concentration response on hDAT uptake [4]: biphasic activity enhancing hDAT activity at low concentrations and inhibiting hDAT function at higher concentrations
- effect on DAT uptake activity / specificity ([4]; listed as KM-822): specific for DAT
- effect on amphetamine-mediated efflux [5]: potentiated amphetamine-mediated efflux; also recorded: potentiated amphetamine mediated efflux
- effect on amphetamine-elicited efflux [6]: blocking amphetamine-elicited efflux; also recorded: blocked

Molecule: CC(N)Cc1ccccc1 (centres unmarked) [Amphetamine]
- amphetamine-elicited efflux [7]: no significant amphetamine-elicited efflux
- Ki [8]: 10 ± 0.5 µM
- amphetamine-elicited efflux [9]: no significant amphetamine-elicited efflux
- amphetamine-elicited efflux [10]: substantial efflux
- Ki [11]: 393 ± 26 µM
- reversal of transport (efflux) [12]: did not elicit any significant reversal of transport

Molecule: CC(NC(C)(C)C)C(=O)c1cccc(Cl)c1 (centres unmarked) [Bupropion]
- Ki [8, 16]: 242 ± 36 µM

Molecule: CN(C)CCCC1(c2ccc(F)cc2)OCc2cc(C#N)ccc21 (centres unmarked) [Citalopram]
- Ki [8, 16]: 50.5 ± 4.7 µM

Molecule: COC(=O)[C@H]1[C@@H](OC(=O)c2ccccc2)C[C@@H]2CC[C@H]1N2C [Cocaine]
- Ki [8, 16]: 29.4 ± 3.6 µM
- Ki [11]: 35.4 ± 7.6 µM

Molecule: CN(C)CCCN1c2ccccc2CCc2ccccc21 [Imipramine]
- Ki [11]: 0.3 ± 0.1 µM

Molecule: COc1cccc(NC(=O)Cn2c(SCC(=O)Nc3ccc(F)cc3)nnc2-c2ccncc2)c1 [KM-409, N-(4-fluorophenyl)-2-((4-(2-((3-methoxyphenyl)amino)-2-oxoethyl)-5-(pyridin-4-yl)-4H-1,2,4-triazol-3-yl)thio)acetamide]
- activity towards NET [13]: displayed activity towards NET

Molecule: NCCc1c[nH]c2ccc(O)cc12 [serotonin]
- Km [14]: 4.7 ± 1.3 µM

B1: WT mSERT (Mus musculus) (protein)
chain: METTPLNSQKVLSECKDKEDCQENGVLQKGVPTPADKAGPGQISNGYSAVPSTSAGDEAPHSTPAATTTLVAEIHQGERETWGKKMDFLLSVIGYAVDLGNIWRFPYICYQNGGGAFLLPYTIMAIFGGIPLFYMELALGQYHRNGCISIWKKICPIFKGIGYAICIIAFYIASYYNTIIAWALYYLISSFTDQLPWTSCKNSWNTGNCTNYFAQDNITWTLHSTSPAEEFYLRHVLQIHQSKGLQDLGTISWQLALCIMLIFTIIYFSIWKGVKTSGKVVWVTATFPYIVLSVLLVRGATLPGAWRGVVFYLKPNWQKLLETGVWVDAAAQIFFSLGPGFGVLLAFASYNKFNNNCYQDALVTSVVNCMTSFVSGFVIFTVLGYMAEMRNEDVSEVAKDAGPSLLFITYAEAIANMPASTFFAIIFFLMLITLGLDSTFAGLEGVITAVLDEFPHIWAKRREWFVLIVVITCILGSLLTLTSGGAYVVTLLEEYATGPAVLTVALIEAVVVSWFYGITQFCSDVKEMLGFSPGWFWRICWVAISPLFLLFIICSFLMSPPQLRLFQYNYPHWSIILGYCIGTSSVICIPIYIIYRLISTPGTLKERIIKSITPETPTEIPCGDIRMNAV
- Km [15]: 3.4 ± 0.7 µM
